Assay results as given in publication PMC7825173, “4’-O-Methylbroussochalcone B as a novel tubulin polymerization inhibitor suppressed the proliferation and migration of acute myeloid leukaemia cells” (BMC Cancer, 2021).

How the values were obtained:
GDM-1 cells = assay: MTT antiproliferative assay, GDM-1 cells; type: cell-based, human; conditions: 72 h; for cell proliferation rate: 16 μM
Description: (§1) Cells were grown in a 5% CO2 incubator at 37 °C. We used trypsin to digest cells in logarithmic growth phase. Then, we plated the cells in 96-well plates at 5000 cells per well evenly. After cell adherence, chalcones were added in the 96-well plates for 48 h or 72 h. We added MTT reagent to each well and incubated for 2 h in the incubator. Finally, the absorbance value was measured at 490 nm after treatment with DMSO.

tubulin = assay: Tubulin polymerization assay in vitro; type: biochemical; conditions: 2 mg/mL tubulin, 60 min, 37 °C; read-out: IC50, inhibition of tubulin polymerization
Description: An amount of 2 mg/mL tubulin was resuspended in PEM buffer, consisted of 80 mM PIPES (pH 6.9), 2 mM MgCl2, 0.5 mM EGTA, and 15% glycerol. 4′-O-Methylbroussochalcone B (1 μM, 3 μM and 6 μM) was preincubated on ice. The reaction was monitored by a spectrophotometer in absorbance at 340 nm at 37 °C.
The tubulin assembly assay measured the extent of assembly of 2 mg/mL tubulin after 60 min at 37 °C. Data are presented as mean from three independent experiments.
The tubulin assembly assay measured the extent of assembly of 2 mg/mL tubulin after 60 minutes at 37 °C. Data are presented as mean from three independent experiments.

ML-2 cells [1] = assay: Transwell migration assay, ML-2 cells; type: cell-based, human; conditions: 24 h
Description: (§2) The cells (100 μl, 1 × 10^6 cells/ml) were suspended in the medium which contained 0.1% FBS and plated to the upper chamber of the transwell. The lower wells were incubated with the addition of the medium (600 μl per well), which included CCL25 (100 ng/ml; Cedarlane Laboratories, Burlington, Canada) and 0.1% FBS. The cells were hatched for 24 h at 37 °C with 5% CO2. Finally, the cells in the lower chamber were counted under a light microscope.

ML-2 cells [2] = assay: Cell cycle assay, ML-2 cells; type: cell-based, human; conditions: 2 μM and 4 μM, 48 h
Description: (§3) The samples of fixed cells were stained with 50 μg/ml Propidium iodide (PI, Sigma) in the dark for 30 min at room temperature, following the manufacturer’s protocol. Then the samples were tested by flow cytometer (Becton, Dickinson and Company, NJ). Data were analyzed via CellQuest software.

ML-2 cells [3] = assay: MTT antiproliferative assay, ML-2 cells; type: cell-based, human; conditions: 72 h
Description: as §1

OCI-AML5 cells [4] = assay: Transwell migration assay, OCI-AML5 cells; type: cell-based, human; conditions: 24 h
Description: as §2

[5] = test system: colchicine binding site of β-tubulin; assay: EBI competition assay in ML-2 cells; type: cell-based, human; conditions: preincubation at 10 μM, Western Blot
Description: ML-2 cells were seeded in 6-well plates for 24 h. 4′-O-Methylbroussochalcone B and colchicine treated them for 2 h respectively. Then, EBI were added. After 90 min, ML-2 cells were harvested to do Western Blot analysis. The signals were then visualized using chemiluminescent substrate (Zhengzhou research company, Zhengzhou, China).

β-tubulin = assay: Immunofluorescence staining of β-tubulin in ML-2 cells; type: cell-based, human; conditions: 1 μM and 2 μM, 24 h
Description: ML-2 cells were seeded into 6-well plates and then treated with 4′-O-Methylbroussochalcone B for 24 h. ML-2 cells were washed with phosphate buffer solution (PBS), and then fixed in 4% paraformaldehyde. After blocking for 0.5 h in 5% goat serum albumin, ML-2 cells were incubated with anti-β-tubulin for 2 h. Then, ML-2 cells were washed by PBS and labeled by 4, 6-diamidino-2-phenylindole.

OCI-AML5 cells [6] = assay: Apoptosis assay (Annexin V-FITC/PI flow cytometry), OCI-AML5 cells; type: cell-based, human; conditions: 48 h
Description: (§4) ML-2 cells and OCI-AML5 cells were seeded in 6-well culture plates and treated with certain concentration of 4′-O-Methylbroussochalcone B for 48 h. Cells were harvested and suspended in binding buffer containing Annexin V-FITC (0.5 mg/mL) and PI (0.5 mg/mL) then. After that, samples were incubated for 25 min in dark and analyzed with flow cytometry (Becton, Dickinson and Company, NJ).

ML-2 cells [7] = assay: Apoptosis assay (Annexin V-FITC/PI flow cytometry), ML-2 cells; type: cell-based, human; conditions: 48 h
Description: as §4

CESS cells = assay: MTT antiproliferative assay, CESS cells; type: cell-based, human; conditions: 72 h
Description: as §1

OCI-AML5 cells [8] = assay: Cell cycle assay, OCI-AML5 cells; type: cell-based, human; conditions: 2 μM and 4 μM, 48 h
Description: as §3

OCI-AML5 cells [9] = assay: MTT antiproliferative assay, OCI-AML5 cells; type: cell-based, human; conditions: 72 h
Description: as §1

`CC(C)=CCc1c(O)ccc(C(=O)/C=C/c2ccc(O)cc2)c1O` [Isobavachalcone] showed a cell proliferation rate (GDM-1 cells) of 57.33% and an IC50 (tubulin) of 6.38 ± 0.12 µM.
With `CC1(C)C=Cc2c(ccc(C(=O)/C=C/c3ccc(O)cc3)c2O)O1` [Isobavachromene] the cell proliferation rate (GDM-1 cells) was 69.00% and the IC50 (tubulin) was 8.24 ± 0.74 µM.
`CC1(C)C=Cc2cc(C(=O)/C=C/c3ccc(O)cc3)c(O)cc2O1` [Bavachromene] showed a cell proliferation rate (GDM-1 cells) of 29.40% and an IC50 (tubulin) of 3.11 ± 0.1 µM.
With 4′-O-Methylbroussochalcone B the cell migration (ML-2 cells [1]) was “evidently inhibited”, the “cell cycle distribution (G2-M phase)” value (ML-2 cells [2]) was “arrested in the G2-M phase significantly” and the IC50 (ML-2 cells [3]) was 1160 nM. The cell migration (OCI-AML5 cells [4]) was “evidently inhibited”, the “formation of EBI: β-tubulin adduct” value [5] was “prevented the formation of EBI: β-tubulin adduct” and the cell proliferation rate (GDM-1 cells) was 8.14%. The IC50 (GDM-1 cells) was 3.57 µM, the “expression of β-tubulin (immunofluorescence)” value (β-tubulin) was “suppressed in a concentration-dependent manner” and the apoptotic rate (OCI-AML5 cells [6]; 2 μM) was 12.84%. The apoptotic rate (OCI-AML5 cells [6]; 4 μM) was 24.13%, the “percentage of apoptotic cells (early and late phase)” value (ML-2 cells [7]; 2 μM) was 13.68% and the “percentage of apoptotic cells (early and late phase)” value (ML-2 cells [7]; 4 μM) was 55.04%. For the same molecule, the IC50 (CESS cells) was 4.2 µM, the IC50 (tubulin) was 2.86 µM and the “cell cycle distribution (G2-M phase)” value (OCI-AML5 cells [8]) was “arrested in the G2-M phase significantly”. It also gave an IC50 (OCI-AML5 cells [9]) of 2030 nM.
`CC1(C)CCc2c(ccc(C(=O)/C=C/c3ccc(O)cc3)c2O)O1` [Dorsmanin A] gave a cell proliferation rate (GDM-1 cells) of 36.67% and an IC50 (tubulin) of 4.39 ± 0.26 µM.
`CC(C)=CCc1cc(C(=O)/C=C/c2ccc(O)cc2)c(O)cc1O` [Broussochalcone B] showed a cell proliferation rate (GDM-1 cells) of 29.67% and an IC50 (tubulin) of 5.13 ± 0.45 µM.
